According to the supplement of paper PMC10307832:

What was measured:
Assay in all cases: relative viability (nuclei count vs DMSO), 5 days (fraction); higher = more cells survive
Zebularine + Dasatinib = compound: O=c1ncccn1[C@@H]1O[C@H](CO)[C@@H](O)[C@H]1O [Zebularine] + Cc1nc(Nc2ncc(C(=O)Nc3c(C)cccc3Cl)s2)cc(N2CCN(CCO)CC2)n1 [Dasatinib] (partner 0.075 µM)
Summary of the method: (§1)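 After 5 days of treatment, lung cancer cells in 1536-well plates were fixed and stained in a single step (final 0.05% Triton X-100, 1% formaldehyde, 1 ug/ml Hoechst) and their nuclei counted on 4× images. Treatment had been applied by pin tool the day after seeding as one drug alone or as a fixed anchor-drug dose with five library-drug doses (not always all listed) in √10 steps. Relative viability is the nuclei count of treated wells divided by that of vehicle wells, and values are medians of duplicate plates.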

Zebularine + Navitoclax = compound: O=c1ncccn1[C@@H]1O[C@H](CO)[C@@H](O)[C@H]1O [Zebularine] + CC1(C)CCC(c2ccc(Cl)cc2)=C(CN2CCN(c3ccc(C(=O)NS(=O)(=O)c4ccc(N[C@H](CCN5CCOCC5)CSc5ccccc5)c(S(=O)(=O)C(F)(F)F)c4)cc3)CC2)C1 [Navitoclax] (partner 0.5 µM)
Summary of the method: as §1

BI-D1870 + Crizotinib = compound: CC(C)CCN1c2nc(Nc3cc(F)c(O)c(F)c3)ncc2N(C)C(=O)C1C [BI-D1870] + C[C@@H](Oc1cc(-c2cnn(C3CCNCC3)c2)cnc1N)c1c(Cl)ccc(F)c1Cl [Crizotinib] (partner 1 µM)
Summary of the method: as §1

Zebularine + Luminespib = compound: O=c1ncccn1[C@@H]1O[C@H](CO)[C@@H](O)[C@H]1O [Zebularine] + CCNC(=O)c1noc(-c2cc(C(C)C)c(O)cc2O)c1-c1ccc(CN2CCOCC2)cc1 [Luminespib] (partner 0.01 µM)
Summary of the method: as §1

Cell Line	relative viability (Zebularine + Dasatinib; first compound 1 µM)	relative viability (Zebularine + Dasatinib; first compound 3.162 µM)	relative viability (Zebularine + Dasatinib; first compound 10 µM)	relative viability (Zebularine + Dasatinib; first compound 31.62 µM)	relative viability (Zebularine + Dasatinib; first compound 100 µM)	relative viability (Zebularine + Navitoclax; first compound 1 µM)	relative viability (Zebularine + Navitoclax; first compound 3.162 µM)	relative viability (Zebularine + Navitoclax; first compound 10 µM)	relative viability (Zebularine + Navitoclax; first compound 31.62 µM)	relative viability (Zebularine + Navitoclax; first compound 100 µM)	relative viability (BI-D1870 + Crizotinib; first compound 0.04 µM)	relative viability (BI-D1870 + Crizotinib; first compound 0.1265 µM)	relative viability (BI-D1870 + Crizotinib; first compound 0.4 µM)	relative viability (BI-D1870 + Crizotinib; first compound 1.265 µM)	relative viability (BI-D1870 + Crizotinib; first compound 4 µM)	relative viability (Zebularine + Luminespib; first compound 1 µM)	relative viability (Zebularine + Luminespib; first compound 3.162 µM)	relative viability (Zebularine + Luminespib; first compound 10 µM)	relative viability (Zebularine + Luminespib; first compound 31.62 µM)	relative viability (Zebularine + Luminespib; first compound 100 µM)
201T	0.635	0.586	0.508	0.6	0.548	1.21	1.21	0.981	1.19	1.18	1.02	1.02	1.04	1.07	1.03	1.09	1.1	0.894	1.04	0.724
A549						1.24	1.12		0.913	0.206	0.873	0.708	0.76	0.618	0.158					
A-427	0.841	0.664	0.434	0.535	0.2	0.974	0.932	0.563	0.483	0.205	0.992	0.86	0.825	1.11	0.857	1.01	0.856	0.53	0.383	0.261
ABC-1	0.637	0.352	0.454	0.435	0.351						1.19	0.49	1.12	0.988	0.591	0.476		0.458	0.317	0.364
BEN	0.32	0.303	0.253	0.223	0.146	0.0641	0.0628	0.162	0.0748	0.0383	1.12	0.722	1.01	0.99	0.822	0.448	0.172	0.235	0.262	0.178
CAL-12T	0.462	0.623	0.238	0.451	0.414	1.53	1.32		1.28	0.918	0.598	0.53	0.662	0.506	0.283	0.49	0.717	0.244	0.355	0.582
COR-L23	0.616	0.442	0.373	0.239	0.211	1.02	1.15	0.323	0.558	0.218	0.703	0.639	0.692	0.72	0.544	0.88	0.753	0.332	0.439	0.171
COR-L 105	0.33	0.294	0.33	0.367	0.369	0.642	0.738	0.674	0.768	0.747	0.858	0.79	0.777	0.754	0.574	0.844	0.839	0.508	1.06	0.652
Calu-6						1.03	0.825	0.649	0.647	0.225	0.883	0.741	0.886	0.597	0.629					
ChaGo-K-1	0.619	0.557	0.312	0.269	0.183	1.18	0.891	0.562	0.538	0.292	1.19	1.09	1.08	1.06	0.994	0.657	0.508	0.212	0.221	0.217
EBC-1						0.398	0.353	0.376	0.337	0.37	0.16	0.182	0.209	0.188	0.134					
EKVX	0.577	0.498		0.575	0.573	1.03	0.755		0.947	1.03	0.929	0.986	0.92	0.941	0.816	0.863	0.847	0.867	0.807	0.653
EMC-BAC-2	0.349	0.367	0.268	0.318	0.311	1.35	1.15	0.683	1.28	1.3	0.847	0.739	0.726	0.853	0.835	1.27	1.1	0.842	1.38	1.35
EPLC-272H	0.405	0.356	0.255	0.34	0.28	1.45			1.26	0.639	0.926	0.86	0.904	0.972	0.931	0.247	0.238	0.237	0.406	0.154
H3255	0.402	0.365	0.324	0.409	0.368	0.627	0.453		0.36	0.409	0.831	0.924	0.862	0.987	0.981	1.04	0.816	0.797	0.972	0.909
HARA	0.219			0.35	0.274	1.14	1.13		1.1	0.718	1.15	0.941	0.994	1.24	0.922	0.86			0.833	0.445
HCC-15	0.759	0.577	0.494	0.486	0.27	0.775	0.72	0.507	0.781	0.469	0.919	0.733	0.74	0.81	0.594	0.297	0.337	0.211	0.34	0.216
HCC-44						0.965	0.943	0.669	0.973	0.248	0.921	0.798	0.771	0.851	0.829	1.17	1.15	0.746	0.374	0.388
HCC-78	0.385	0.428	0.22	0.37	0.278	0.811	0.775	0.592	0.497	0.22	0.365	0.318	0.309	0.295	0.245					
HCC-366	0.617	0.667	0.526	0.721	0.218	1.12	1.02	0.449	0.556	0.0921	0.694	0.485	0.471	0.933	0.378					

Cell Line	relative viability (Zebularine + Dasatinib; first compound 1 µM)	relative viability (Zebularine + Dasatinib; first compound 3.162 µM)	relative viability (Zebularine + Dasatinib; first compound 10 µM)	relative viability (Zebularine + Dasatinib; first compound 31.62 µM)	relative viability (Zebularine + Dasatinib; first compound 100 µM)	relative viability (Zebularine + Navitoclax; first compound 1 µM)	relative viability (Zebularine + Navitoclax; first compound 3.162 µM)	relative viability (Zebularine + Navitoclax; first compound 10 µM)	relative viability (Zebularine + Navitoclax; first compound 31.62 µM)	relative viability (Zebularine + Navitoclax; first compound 100 µM)	relative viability (BI-D1870 + Crizotinib; first compound 0.04 µM)	relative viability (BI-D1870 + Crizotinib; first compound 0.1265 µM)	relative viability (BI-D1870 + Crizotinib; first compound 0.4 µM)	relative viability (BI-D1870 + Crizotinib; first compound 1.265 µM)	relative viability (BI-D1870 + Crizotinib; first compound 4 µM)	relative viability (Zebularine + Luminespib; first compound 1 µM)	relative viability (Zebularine + Luminespib; first compound 3.162 µM)	relative viability (Zebularine + Luminespib; first compound 10 µM)	relative viability (Zebularine + Luminespib; first compound 31.62 µM)	relative viability (Zebularine + Luminespib; first compound 100 µM)
HCC-827	0.3	0.292	0.249	0.322	0.238	0.98	0.986	0.968	0.714	0.418	0.97	0.912	0.95	0.947	0.821	0.756	0.909	0.353	0.582	0.257
HOP-62	0.729	0.711	0.421	0.462	0.253	1.11	1.01	0.424	0.217	0.197	1.08	0.986	0.963	1.01	0.915	0.991	0.906	0.263	0.296	0.178
IA-LM						0.899	0.688	0.506	0.805	0.616	1.19	0.942	0.845	0.569	0.176					
LC-2-ad	0.731	0.494	0.226	0.491	0.34	0.409	0.422	0.291	0.33	0.137	0.51	0.454	0.394	0.544	0.434	1.02	1.01	0.699	0.73	0.541
LCLC-97TM1	0.868	0.844	0.509	0.577	0.315	0.422	0.351	0.238	0.149	0.143	0.361	0.361	0.36	0.57	0.312	0.806	0.777	0.427	0.241	0.21
LCLC-103H	0.485	0.479	0.251	0.475	0.44						1.18	0.889	0.868	1.1	1.03	1.07	0.996	0.696	0.705	0.475
LK-2	0.242	0.336	0.287	0.256	0.228	0.759	0.946	0.588	0.787	0.417	0.187	0.233	0.232	0.274	0.264	0.17	0.176	0.213	0.182	0.176
LOU-NH91	0.569	0.595	0.553	0.571	0.473	0.676	0.659	0.634	0.603	0.395	0.8	0.702	0.735	0.75	0.647	0.332	0.33	0.479	0.298	0.3
NCI-H358	0.169	0.134	0.194	0.174	0.105						0.772	0.598	0.475	0.456	0.213	0.355	0.462	0.251	0.269	0.184
NCI-H522	0.859	0.886	0.473	0.933	0.938											0.928	0.881	0.99	0.776	0.665
NCI-H650	0.462	0.486	0.403	0.397	0.268						0.672	0.667	0.695	0.662	0.405	0.776	0.742	0.595	0.355	0.224
NCI-H661	0.833	0.918	0.868	1.05	0.819						1.24	0.963	0.973	1.05	0.902	1.02	0.948	0.686	1.01	0.895
NCI-H1299						1.05	1.07	0.782	1.06	0.526	0.971	0.902	0.965	0.885	0.814					
NCI-H1395	0.443	0.37	0.408	0.341	0.36	0.99	1.37	0.919	0.629	0.473						0.564	0.666	0.456	0.536	0.372
NCI-H1563	0.498	0.528	0.527	0.406	0.466						0.878	0.893	0.842	0.905	0.905	0.519	0.517	0.518	0.521	0.514
NCI-H1623	0.632	0.47	0.459	0.53	0.386											0.629	0.503	0.592	0.468	0.293
NCI-H1703						1.17	0.915	0.859	1.31	0.813	1.16	0.613	0.467	0.756	0.356					
NCI-H1793	0.479	0.373		0.25	0.176	0.403	0.448	0.318	0.285	0.208						0.196	0.197		0.203	0.142
NCI-H2342	0.364	0.337	0.268	0.334	0.341											0.835	0.783	0.621	0.669	0.576
SW 900	0.647	0.498	0.328	0.926	0.484											0.187	0.21	0.218	0.162	0.137
